Experimental data as given in paper PMC8699473, “An Easily Expandable Multi-Drug LC-MS Assay for the Simultaneous Quantification of 57 Oral Antitumor Drugs in Human Plasma” (Cancers, 2021).

What was measured:
[1] = Plasma concentrations in patients on oral antitumor therapy (LC-MS); type: in vivo, human
Source text: The liquid chromatography-mass spectrometer system consisted of a Thermo Scientific Dionex UltiMate^TM 3000 with an integrated and temperature controlled autosampler (Thermo Fisher Scientific, Dreieich, Germany). An Acquity UPLC® BEH C18 column (2.1 × 100 mm, 1.7 µm; Waters, Milford, CT, USA) equipped with an Acquity UPLC® BEH C18 VanGuard^TM Pre-Column (2.1 × 5 mm, 1.7 µm; Waters, Milford, CT, USA) was used for chromatographic separation. The Q-Exactive^TM Focus mass spectrometer (MS) was hyphenated with a heated electrospray ionization (HESI) source (both from Thermo Fisher Scientific, Dreieich, Germany).
Chromatographic separation was achieved using a gradient elution with water containing 0.5% (v/v) FA (eluent A) and MeOH with 0.1% (v/v) FA (eluent B). The injection volume was 5 µL. The gradient program is shown in Supplement Table S2. The flow rate was 0.5 mL/min with a total run time of 15 min. The column heater was maintained at 50 °C and the autosampler temperature was 4 °C.
The following MS and HESI settings were maintained for all analyses: Sheath gas, auxiliary gas, and sweep gas flow rates were set to 60, 20, and 0, respectively. The spray voltage was 4000 V. Both capillary and auxiliary gas heater temperatures were set to 400 °C. High-purity nitrogen gas was used for the HESI source gases and for the bath gas of the C-trap. […] The HESI source was configured in positive mode for ionization.
The stock solutions were stored in glass vials at −80 °C. Aliquots of all stock solutions were combined in ACN (volumes of individual stock solution solvents are negligible) to obtain a standard solution of all analytes with an individual concentration of 200% of the respective trough level (cmin). Eight individual working standards were prepared by stepwise dilution of this standard solution with concentrations from 10 to 200% cmin (shown in Supplement Table S3). Furthermore, the four individual IS stock solutions were combined and diluted to 50 ng/mL with ACN. Calibration and validation standards were prepared by spiking 50 µL pooled human plasma with 10 µL of the respective working solution. Next, 250 µL IS solution (50 ng/mL in ACN) were added and vortexed vigorously. […] Then, 100 µL supernatant were transferred to 300 µL HPLC insert glass vials and diluted with 100 µL eluent (90% A/10% B). For blank samples, 50 µL pooled human plasma were combined with 10 µL ACN (instead of working solution) and prepared as described above. The calibration and validation standards were freshly prepared before every run. Patient plasma samples were prepared as calibration and validation standards (no additional processing step necessary), except for adding 10 µL ACN instead of 10 µL working standard. Before sample preparation, the frozen plasma samples were thawed in absence of light at 4 °C.
Blood samples were collected over the entire dosing interval from patients treated with an oral anticancer drug as listed in Supplement Table S4. […] A maximum of two samples at two different time points throughout the entire dosing interval were collected per patient. Treatment duration before collection was at least five half-lives (depending on the specific oral anticancer drug). The samples were collected in K3-EDTA tubes.
A total of 71 blood samples from 39 patients treated with 14 different oral anticancer drugs were collected (see Supplement Table S4 for details). All patients were recruited from independent outpatient clinics associated with the Comprehensive Cancer Center of the University Hospital Erlangen (CCC Erlangen-EMN). Of 71 blood samples, 41 were taken ±4 h of trough level (cmin).

[2] = Freeze-thaw stability in spiked pooled human plasma; type: physicochemical
[3] = Autosampler stability of ready for injection samples; type: physicochemical, human
[4] = design: method as in supplement references [1-55] as printed per drug; conditions: minimum steady-state blood plasma concentration after multiple dose administration; ref supplement references [1-55] per drug; cited from earlier work
[5] = Long-term stability in spiked pooled human plasma
[6] = Short-term stability in spiked pooled human plasma (bench-top, 4 °C, 56 °C)

CNC(=O)c1ccccc1Sc1ccc2c(/C=C/c3ccccn3)n[nH]c2c1 [Axitinib]
Measured plasma concentration ([1]; 6 mg/day, 12 h, ±4 h of trough level: no): 0.3 ng/mL
Min–Max Concentration [% of r.c.] ([1]; patient plasma, all samples, r.c. = respective cmin): 6.0 % of r.c.
Freeze-Thaw Accuracy [%] ([2]; validation standard 2xLLOV): 108.3%
Freeze-Thaw Accuracy [%] ([2]; validation standard LLOV): 102.1%
Freeze-Thaw Accuracy [%] ([2]; validation standard MOV): 105.4%
Freeze-Thaw Accuracy [%] ([2]; validation standard ULOV): 104.0%
Autosampler (24h, 4°C) Accuracy [%] ([3]; validation standard 2xLLOV): 101.2%
Autosampler (72h, 4°C) Accuracy [%] ([3]; validation standard 2xLLOV): 104.9%
Autosampler (24h, 4°C) Accuracy [%] ([3]; validation standard LLOV): 105.9%
Autosampler (72h, 4°C) Accuracy [%] ([3]; validation standard LLOV): 97.7%
Autosampler (24h, 4°C) Accuracy [%] ([3]; validation standard MOV): 102.7%
Autosampler (72h, 4°C) Accuracy [%] ([3]; validation standard MOV): 100.0%
Autosampler (24h, 4°C) Accuracy [%] ([3]; validation standard ULOV): 100.4%
Autosampler (72h, 4°C) Accuracy [%] ([3]; validation standard ULOV): 99.1%
cmin [4]: 5 ng/mL
Long-term stability, 1 month, -20°C Accuracy [%] ([5]; validation standard 2xLLOV): 86.8%
Long-term stability, 1 month, -80°C Accuracy [%] ([5]; validation standard 2xLLOV): 86.83%
Long-term stability, 2 month, -20°C Accuracy [%] ([5]; validation standard 2xLLOV): 87.6%
Long-term stability, 2 month, -80°C Accuracy [%] ([5]; validation standard 2xLLOV): 94.2%
Long-term stability, 3 month, -20°C Accuracy [%] ([5]; validation standard 2xLLOV): 92.9%
Long-term stability, 3 month, -80°C Accuracy [%] ([5]; validation standard 2xLLOV): 100.1%
Long-term stability, 6 weeks, 4°C, without daylight Accuracy [%] ([5]; validation standard 2xLLOV): 66.5%
Long-term stability, 1 month, -20°C Accuracy [%] ([5]; validation standard LLOV): 87.8%
Long-term stability, 1 month, -80°C Accuracy [%] ([5]; validation standard LLOV): 83.07%
Long-term stability, 2 month, -20°C Accuracy [%] ([5]; validation standard LLOV): 110.1%
Long-term stability, 2 month, -80°C Accuracy [%] ([5]; validation standard LLOV): 90.5%
Long-term stability, 3 month, -20°C Accuracy [%] ([5]; validation standard LLOV): 107.3%
Long-term stability, 3 month, -80°C Accuracy [%] ([5]; validation standard LLOV): 102.5%
Long-term stability, 6 weeks, 4°C, without daylight Accuracy [%] ([5]; validation standard LLOV): 49.2%
Long-term stability, 1 month, -20°C Accuracy [%] ([5]; validation standard MOV): 89.8%
Long-term stability, 1 month, -80°C Accuracy [%] ([5]; validation standard MOV): 87.50%
Long-term stability, 2 month, -20°C Accuracy [%] ([5]; validation standard MOV): 87.7%
Long-term stability, 2 month, -80°C Accuracy [%] ([5]; validation standard MOV): 92.2%
Long-term stability, 3 month, -20°C Accuracy [%] ([5]; validation standard MOV): 95.9%
Long-term stability, 3 month, -80°C Accuracy [%] ([5]; validation standard MOV): 90.5%
Long-term stability, 6 weeks, 4°C, without daylight Accuracy [%] ([5]; validation standard MOV): 100.5%
Long-term stability, 1 month, -20°C Accuracy [%] ([5]; validation standard ULOV): 92.0%
Long-term stability, 1 month, -80°C Accuracy [%] ([5]; validation standard ULOV): 87.13%
Long-term stability, 2 month, -20°C Accuracy [%] ([5]; validation standard ULOV): 88.8%
Long-term stability, 2 month, -80°C Accuracy [%] ([5]; validation standard ULOV): 91.3%
Long-term stability, 3 month, -20°C Accuracy [%] ([5]; validation standard ULOV): 86.8%
Long-term stability, 3 month, -80°C Accuracy [%] ([5]; validation standard ULOV): 91.9%
Long-term stability, 6 weeks, 4°C, without daylight Accuracy [%] ([5]; validation standard ULOV): 91.2%
light sensitivity ([6]; acceptance limit <85%): no losses of concentrations below the acceptance limit
Short-time stability (1h, 56°C) Accuracy [%] ([6]; validation standard 2xLLOV): 67.7%
Short-time stability (24h, 4°C, without daylight) Accuracy [%] ([6]; validation standard 2xLLOV): 103.6%
Short-time stability (24h, RT, with daylight) Accuracy [%] ([6]; validation standard 2xLLOV): 107.5%
Short-time stability (24h, RT, without daylight) Accuracy [%] ([6]; validation standard 2xLLOV): 86.7%
Short-time stability (1h, 56°C) Accuracy [%] ([6]; validation standard LLOV): 71.1%
Short-time stability (24h, 4°C, without daylight) Accuracy [%] ([6]; validation standard LLOV): 129.6%
Short-time stability (24h, RT, with daylight) Accuracy [%] ([6]; validation standard LLOV): 108.7%
Short-time stability (24h, RT, without daylight) Accuracy [%] ([6]; validation standard LLOV): 106.1%
Short-time stability (1h, 56°C) Accuracy [%] ([6]; validation standard MOV): 54.6%
Short-time stability (24h, 4°C, without daylight) Accuracy [%] ([6]; validation standard MOV): 100.6%
Short-time stability (24h, RT, with daylight) Accuracy [%] ([6]; validation standard MOV): 116.9%
Short-time stability (24h, RT, without daylight) Accuracy [%] ([6]; validation standard MOV): 99.3%
Short-time stability (1h, 56°C) Accuracy [%] ([6]; validation standard ULOV): 46.2%
Short-time stability (24h, 4°C, without daylight) Accuracy [%] ([6]; validation standard ULOV): 97.2%
Short-time stability (24h, RT, with daylight) Accuracy [%] ([6]; validation standard ULOV): 123.3%
Short-time stability (24h, RT, without daylight) Accuracy [%] ([6]; validation standard ULOV): 101.6%
